# Data: the supplement of paper PMC10307832
# Experiments:
# Assay in all cases: relative viability (nuclei count vs DMSO), 5 days (fraction); higher = more cells survive
# BEN = tested on: BEN
# In short: (§1)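 For relative viability, nuclei counts in treated wells were divided by those in vehicle wells. Lung cancer cell lines had been pin-tool dosed in 1536-well plates the day after seeding and cultured for 5 days, then fixed and stained in one step (final 0.05% Triton X-100, 1% formaldehyde, 1 ug/ml Hoechst) and imaged at 4×. Doses were one drug alone or a fixed anchor-drug dose plus five library-drug doses (not always all listed) in √10 steps, and values are duplicate-plate medians.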
# ChaGo-K-1 = tested on: ChaGo-K-1
# In short: as §1
# HCC-78 = tested on: HCC-78
# In short: as §1
# LC-2-ad = tested on: LC-2-ad
# In short: as §1
# LCLC-97TM1 = tested on: LCLC-97TM1
# In short: as §1
# LK-2 = tested on: LK-2
# In short: as §1
# LU99A = tested on: LU99A
# In short: as §1
# LXF-289 = tested on: LXF-289
# In short: as §1
# NCI-H1355 = tested on: NCI-H1355
# In short: as §1
# NCI-H1651 = tested on: NCI-H1651
# In short: as §1
# NCI-H1666 = tested on: NCI-H1666
# In short: as §1
# NCI-H1944 = tested on: NCI-H1944
# In short: as §1
# NCI-H1975 = tested on: NCI-H1975
# In short: as §1
# NCI-H2087 = tested on: NCI-H2087
# In short: as §1
# NCI-H2342 = tested on: NCI-H2342
# In short: as §1
# NCI-H358 = tested on: NCI-H358
# In short: as §1
# NCI-H596 = tested on: NCI-H596
# In short: as §1
# NCI-H650 = tested on: NCI-H650
# In short: as §1
# NCI-H661 = tested on: NCI-H661
# In short: as §1
# NCI-H838 = tested on: NCI-H838
# In short: as §1
# PC-3 [JPC-3] = tested on: PC-3 [JPC-3]
# In short: as §1
# SK-MES-1 = tested on: SK-MES-1
# In short: as §1
smiles,measurement,setting,value
COc1cc2nccc(Oc3ccc(NC(=O)Nc4cc(C)on4)c(Cl)c3)c2cc1OC [Tivozanib] + N=C(N)NC(=N)NCCc1ccccc1 [Phenformin] (partner 250 µM),relative viability,BEN; first compound 0.005 µM,0.25
same,relative viability,BEN; first compound 0.01581 µM,0.279
same,relative viability,BEN; first compound 0.05 µM,0.224
same,relative viability,BEN; first compound 0.1581 µM,0.314
same,relative viability,BEN; first compound 0.5 µM,0.234
same,relative viability,ChaGo-K-1; first compound 0.005 µM,0.474
same,relative viability,ChaGo-K-1; first compound 0.01581 µM,0.488
same,relative viability,ChaGo-K-1; first compound 0.05 µM,0.492
same,relative viability,ChaGo-K-1; first compound 0.1581 µM,0.507
same,relative viability,ChaGo-K-1; first compound 0.5 µM,0.433
same,relative viability,HCC-78; first compound 0.005 µM,0.619
same,relative viability,HCC-78; first compound 0.01581 µM,0.658
same,relative viability,HCC-78; first compound 0.05 µM,0.85
same,relative viability,HCC-78; first compound 0.1581 µM,0.529
same,relative viability,HCC-78; first compound 0.5 µM,0.655
same,relative viability,LC-2-ad; first compound 0.005 µM,0.593
same,relative viability,LC-2-ad; first compound 0.01581 µM,0.548
same,relative viability,LC-2-ad; first compound 0.05 µM,0.579
same,relative viability,LC-2-ad; first compound 0.1581 µM,0.514
same,relative viability,LC-2-ad; first compound 0.5 µM,0.387
same,relative viability,LCLC-97TM1; first compound 0.005 µM,0.423
same,relative viability,LCLC-97TM1; first compound 0.01581 µM,0.49
same,relative viability,LCLC-97TM1; first compound 0.05 µM,0.417
same,relative viability,LCLC-97TM1; first compound 0.1581 µM,0.473
same,relative viability,LCLC-97TM1; first compound 0.5 µM,0.395
same,relative viability,LK-2; first compound 0.005 µM,0.459
same,relative viability,LK-2; first compound 0.01581 µM,0.457
same,relative viability,LK-2; first compound 0.05 µM,0.512
same,relative viability,LK-2; first compound 0.1581 µM,0.283
same,relative viability,LK-2; first compound 0.5 µM,0.199
same,relative viability,LU99A; first compound 0.005 µM,0.79
same,relative viability,LU99A; first compound 0.01581 µM,0.768
same,relative viability,LU99A; first compound 0.05 µM,0.879
same,relative viability,LU99A; first compound 0.1581 µM,0.769
same,relative viability,LU99A; first compound 0.5 µM,0.755
same,relative viability,LXF-289; first compound 0.005 µM,0.532
same,relative viability,LXF-289; first compound 0.01581 µM,0.506
same,relative viability,LXF-289; first compound 0.05 µM,0.514
same,relative viability,LXF-289; first compound 0.1581 µM,0.561
same,relative viability,LXF-289; first compound 0.5 µM,0.418
same,relative viability,NCI-H1355; first compound 0.005 µM,0.413
same,relative viability,NCI-H1355; first compound 0.01581 µM,0.432
same,relative viability,NCI-H1355; first compound 0.05 µM,0.481
same,relative viability,NCI-H1355; first compound 0.1581 µM,0.43
same,relative viability,NCI-H1355; first compound 0.5 µM,0.382
same,relative viability,NCI-H1651; first compound 0.005 µM,0.297
same,relative viability,NCI-H1651; first compound 0.01581 µM,0.425
same,relative viability,NCI-H1651; first compound 0.05 µM,0.314
same,relative viability,NCI-H1651; first compound 0.1581 µM,0.36
same,relative viability,NCI-H1651; first compound 0.5 µM,0.315
same,relative viability,NCI-H1666; first compound 0.005 µM,0.507
same,relative viability,NCI-H1666; first compound 0.01581 µM,0.553
same,relative viability,NCI-H1666; first compound 0.05 µM,0.579
same,relative viability,NCI-H1666; first compound 0.1581 µM,0.569
same,relative viability,NCI-H1666; first compound 0.5 µM,0.582
same,relative viability,NCI-H1944; first compound 0.005 µM,0.189
same,relative viability,NCI-H1944; first compound 0.01581 µM,0.202
same,relative viability,NCI-H1944; first compound 0.05 µM,0.208
same,relative viability,NCI-H1944; first compound 0.1581 µM,0.21
same,relative viability,NCI-H1944; first compound 0.5 µM,0.188
same,relative viability,NCI-H1975; first compound 0.005 µM,0.398
same,relative viability,NCI-H1975; first compound 0.01581 µM,0.429
same,relative viability,NCI-H1975; first compound 0.05 µM,0.397
same,relative viability,NCI-H1975; first compound 0.1581 µM,0.423
same,relative viability,NCI-H1975; first compound 0.5 µM,0.395
same,relative viability,NCI-H2087; first compound 0.005 µM,0.416
same,relative viability,NCI-H2087; first compound 0.01581 µM,0.444
same,relative viability,NCI-H2087; first compound 0.05 µM,0.496
same,relative viability,NCI-H2087; first compound 0.1581 µM,0.407
same,relative viability,NCI-H2087; first compound 0.5 µM,0.415
same,relative viability,NCI-H2342; first compound 0.005 µM,0.554
same,relative viability,NCI-H2342; first compound 0.01581 µM,0.585
same,relative viability,NCI-H2342; first compound 0.05 µM,0.59
same,relative viability,NCI-H2342; first compound 0.5 µM,0.632
same,relative viability,NCI-H358; first compound 0.005 µM,0.306
same,relative viability,NCI-H358; first compound 0.01581 µM,0.265
same,relative viability,NCI-H358; first compound 0.05 µM,0.411
same,relative viability,NCI-H358; first compound 0.1581 µM,0.301
same,relative viability,NCI-H358; first compound 0.5 µM,0.447
same,relative viability,NCI-H596; first compound 0.005 µM,0.744
same,relative viability,NCI-H596; first compound 0.01581 µM,0.699
same,relative viability,NCI-H596; first compound 0.05 µM,0.777
same,relative viability,NCI-H596; first compound 0.5 µM,0.798
same,relative viability,NCI-H650; first compound 0.005 µM,0.395
same,relative viability,NCI-H650; first compound 0.01581 µM,0.457
same,relative viability,NCI-H650; first compound 0.05 µM,0.472
same,relative viability,NCI-H650; first compound 0.1581 µM,0.39
same,relative viability,NCI-H650; first compound 0.5 µM,0.333
same,relative viability,NCI-H661; first compound 0.005 µM,0.264
same,relative viability,NCI-H661; first compound 0.01581 µM,0.277
same,relative viability,NCI-H661; first compound 0.05 µM,0.277
same,relative viability,NCI-H661; first compound 0.1581 µM,0.278
same,relative viability,NCI-H661; first compound 0.5 µM,0.249
same,relative viability,NCI-H838; first compound 0.005 µM,0.538
same,relative viability,NCI-H838; first compound 0.01581 µM,0.551
same,relative viability,NCI-H838; first compound 0.05 µM,0.538
same,relative viability,NCI-H838; first compound 0.5 µM,0.564
same,relative viability,PC-3 [JPC-3]; first compound 0.005 µM,0.477
same,relative viability,PC-3 [JPC-3]; first compound 0.01581 µM,0.468
same,relative viability,PC-3 [JPC-3]; first compound 0.05 µM,0.516
same,relative viability,PC-3 [JPC-3]; first compound 0.1581 µM,0.427
same,relative viability,PC-3 [JPC-3]; first compound 0.5 µM,0.481
same,relative viability,SK-MES-1; first compound 0.005 µM,0.622
same,relative viability,SK-MES-1; first compound 0.01581 µM,0.676
same,relative viability,SK-MES-1; first compound 0.05 µM,0.71
same,relative viability,SK-MES-1; first compound 0.1581 µM,0.688
same,relative viability,SK-MES-1; first compound 0.5 µM,0.602
